Results: patent US20160361302A1, “SNS-595 AND METHODS OF USING THE SAME” (Sunesis Pharmaceuticals, Inc., priority 2004, published 2016)
Like-named read-outs stand apart in the source and are kept apart here.

Assay: Pharmacokinetics of SNS-595 in cancer patients
Assay type: in vivo, human
Conditions: for AUC(0-inf): read-out: AUCINF_obs
Procedure: SNS-595 was administered to enrolled patients for up to six cycles. A cycle is defined as a three-week period, with SNS-595 administered on the first day of each cycle (day 0), followed by at least 21 days of observation. SNS-595 was administered to cohorts of at least 3 patients and dose escalation occurred by sequential cohort.

[1] = dose 6 mg/m2, cancer patients, plasma
[2] = dose 12 mg/m2, cancer patients, plasma
[3] = dose 24 mg/m2, cancer patients, plasma
[4] = dose 48 mg/m2, cancer patients, plasma
[5] = human, dose 12 mg/m2, cancer patients, plasma

Vs_obs (dose 2 mg/m2, cancer patients, plasma): 1.38 L/kg | AUClast [1]: 2408.08 ng·h/mL | CI_obs [1]: 0.71 mL/min/kg | Cmax [1]: 347.06 ng/mL | Vs_obs [1]: 1.28 L/kg | CI_obs [2]: 0.78 mL/min/kg | Vs_obs [2]: 1.17 L/kg | AUClast [3]: 11132.02 ng·h/mL | CI_obs [3]: 0.83 mL/min/kg | Cmax [3]: 2702.33 ng/mL | Vs_obs [3]: 1.18 L/kg | Cmax [4]: 2342.00 ng/mL | Vs_obs [4]: 1.37 L/kg | AUC(0-inf) (human, dose 6 mg/m2, cancer patients, plasma): 2800 ng·h/mL | AUC(0-t) [5]: ~6280 ng·h/mL | AUC(0-inf) [5]: 5230 ng·h/mL
SMILES: CN[C@H]1CN(c2ccc3c(=O)c(C(=O)O)cn(-c4nccs4)c3n2)C[C@@H]1OC [SNS-595, (+)-1,4-dihydro-7-[(3S,4S)-3-methoxy-4-(methylamino)-1-pyrrolidinyl]-4-oxo-1-(2-thiazoyl)-1,8-naphthyridine-3-carboxylic acid]
Consistency of pharmacokinetic properties among patients (patients in the same cohort): remarkably consistent among patients in the same cohort
